Assay results reported in ChEMBL document CHEMBL5291721, “A preclinical secondary pharmacology resource illuminates target-adverse drug reaction associations of marketed drugs” (Nat Commun, 2023).

Key:
[1] = target: T1, Alpha-1A adrenergic receptor (Homo sapiens, UniProt P35348)
T1 sequence (P35348 whole entry): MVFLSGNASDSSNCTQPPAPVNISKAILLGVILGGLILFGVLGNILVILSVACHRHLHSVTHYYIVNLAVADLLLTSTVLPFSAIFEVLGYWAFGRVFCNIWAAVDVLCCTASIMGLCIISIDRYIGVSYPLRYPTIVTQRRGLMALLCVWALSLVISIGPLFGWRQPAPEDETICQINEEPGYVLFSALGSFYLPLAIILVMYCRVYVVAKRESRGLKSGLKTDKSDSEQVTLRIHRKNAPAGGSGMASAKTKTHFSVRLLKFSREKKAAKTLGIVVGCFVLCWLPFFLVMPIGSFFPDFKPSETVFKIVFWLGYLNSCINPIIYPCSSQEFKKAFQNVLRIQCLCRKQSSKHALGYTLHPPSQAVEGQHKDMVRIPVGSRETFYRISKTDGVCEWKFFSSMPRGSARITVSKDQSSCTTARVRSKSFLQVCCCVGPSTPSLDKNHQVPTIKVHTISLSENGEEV

[2] = target: Voltage-dependent N-type calcium channel subunit alpha-1B (Rattus norvegicus, UniProt Q02294); type: functional
[3] = target: T2, Corticotropin-releasing factor receptor 1 (Homo sapiens, UniProt P34998)
T2 sequence (P34998 whole entry): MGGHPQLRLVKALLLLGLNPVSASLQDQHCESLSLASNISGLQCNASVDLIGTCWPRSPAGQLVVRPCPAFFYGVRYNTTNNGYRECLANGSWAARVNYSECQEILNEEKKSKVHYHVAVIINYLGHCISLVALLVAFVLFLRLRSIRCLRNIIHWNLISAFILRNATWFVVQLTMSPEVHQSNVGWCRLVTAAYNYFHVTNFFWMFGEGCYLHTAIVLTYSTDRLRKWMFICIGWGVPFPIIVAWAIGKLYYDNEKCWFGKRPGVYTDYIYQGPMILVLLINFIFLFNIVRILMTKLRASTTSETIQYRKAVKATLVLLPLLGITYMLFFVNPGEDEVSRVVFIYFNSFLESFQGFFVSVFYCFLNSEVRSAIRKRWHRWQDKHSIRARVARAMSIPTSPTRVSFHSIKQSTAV

[4] = target: T3, Gastric inhibitory polypeptide receptor (Homo sapiens, UniProt P48546)
T3 sequence (P48546 whole entry): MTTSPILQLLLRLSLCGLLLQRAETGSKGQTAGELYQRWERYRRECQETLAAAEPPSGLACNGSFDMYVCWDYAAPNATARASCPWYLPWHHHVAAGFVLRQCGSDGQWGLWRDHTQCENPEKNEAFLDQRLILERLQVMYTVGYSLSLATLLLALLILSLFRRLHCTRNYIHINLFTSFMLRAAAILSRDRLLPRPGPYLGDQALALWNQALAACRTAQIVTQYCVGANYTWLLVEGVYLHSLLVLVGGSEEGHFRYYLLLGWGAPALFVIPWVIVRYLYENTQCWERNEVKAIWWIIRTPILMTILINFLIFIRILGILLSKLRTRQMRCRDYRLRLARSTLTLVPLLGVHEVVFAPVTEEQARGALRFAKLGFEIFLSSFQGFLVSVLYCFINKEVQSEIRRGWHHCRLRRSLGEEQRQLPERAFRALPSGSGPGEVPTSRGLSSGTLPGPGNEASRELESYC

[5] = target: T4, Neuropeptide Y receptor type 2 (Homo sapiens, UniProt P49146)
T4 sequence (P49146 whole entry): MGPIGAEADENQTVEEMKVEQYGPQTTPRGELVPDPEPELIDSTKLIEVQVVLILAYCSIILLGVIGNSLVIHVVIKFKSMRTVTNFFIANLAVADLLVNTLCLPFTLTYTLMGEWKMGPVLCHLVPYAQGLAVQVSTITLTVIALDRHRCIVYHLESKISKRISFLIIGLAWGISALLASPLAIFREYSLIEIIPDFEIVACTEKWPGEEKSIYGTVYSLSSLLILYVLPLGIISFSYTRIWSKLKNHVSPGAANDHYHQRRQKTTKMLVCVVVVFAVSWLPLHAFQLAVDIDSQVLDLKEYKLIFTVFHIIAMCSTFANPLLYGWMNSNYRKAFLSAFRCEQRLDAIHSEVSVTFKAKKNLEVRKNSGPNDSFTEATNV

[6] = target: Sodium channel protein type 5 subunit alpha (Homo sapiens, UniProt Q14524); type: functional, cell-based
[7] = target: T5, Muscarinic acetylcholine receptor M2 (Homo sapiens, UniProt P08172)
T5 sequence (P08172 whole entry): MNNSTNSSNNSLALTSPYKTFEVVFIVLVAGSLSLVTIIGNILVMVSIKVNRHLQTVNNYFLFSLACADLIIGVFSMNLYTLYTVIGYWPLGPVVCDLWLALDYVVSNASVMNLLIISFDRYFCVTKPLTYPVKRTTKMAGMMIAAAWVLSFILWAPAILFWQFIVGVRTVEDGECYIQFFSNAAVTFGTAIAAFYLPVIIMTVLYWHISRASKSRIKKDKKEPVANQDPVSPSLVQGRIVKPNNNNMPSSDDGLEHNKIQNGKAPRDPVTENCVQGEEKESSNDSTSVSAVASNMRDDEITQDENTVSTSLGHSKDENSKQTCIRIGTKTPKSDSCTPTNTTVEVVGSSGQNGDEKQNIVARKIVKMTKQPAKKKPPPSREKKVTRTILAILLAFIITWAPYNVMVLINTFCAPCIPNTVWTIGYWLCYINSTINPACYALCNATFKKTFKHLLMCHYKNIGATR

[8] = target: T6, 5-hydroxytryptamine receptor 2A (Homo sapiens, UniProt P28223); type: functional, cell-based
[9] = target: T6, 5-hydroxytryptamine receptor 2A; type: functional, cell-based; remark: listed apart in the source
[10] = target: Sodium-dependent serotonin transporter (Homo sapiens, UniProt P31645)
[11] = target: Gamma-aminobutyric acid receptor subunit alpha-1/alpha-2/beta-2/gamma-2 (Homo sapiens, UniProt P14867+P18507+P47869+P47870); type: functional, cell-based
Note: assay procedure not described here.

Sodium-dependent serotonin transporter, sequence (P31645 whole entry): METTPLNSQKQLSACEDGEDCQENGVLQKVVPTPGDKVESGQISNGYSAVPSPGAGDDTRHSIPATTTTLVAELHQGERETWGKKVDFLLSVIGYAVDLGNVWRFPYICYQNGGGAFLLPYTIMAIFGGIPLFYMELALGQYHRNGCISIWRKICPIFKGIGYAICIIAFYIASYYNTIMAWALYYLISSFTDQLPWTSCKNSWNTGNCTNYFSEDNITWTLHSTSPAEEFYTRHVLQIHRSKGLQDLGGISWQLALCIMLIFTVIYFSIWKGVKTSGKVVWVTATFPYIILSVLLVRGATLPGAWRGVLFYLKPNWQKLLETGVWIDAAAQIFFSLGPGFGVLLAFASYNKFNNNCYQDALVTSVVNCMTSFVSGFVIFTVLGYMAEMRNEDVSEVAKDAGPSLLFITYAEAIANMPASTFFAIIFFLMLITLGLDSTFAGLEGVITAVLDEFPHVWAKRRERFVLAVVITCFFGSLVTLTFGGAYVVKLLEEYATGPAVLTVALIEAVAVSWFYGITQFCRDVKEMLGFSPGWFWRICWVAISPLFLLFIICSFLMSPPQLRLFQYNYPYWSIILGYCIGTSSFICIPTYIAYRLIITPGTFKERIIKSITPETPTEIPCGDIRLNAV
T6 sequence (P28223 whole entry): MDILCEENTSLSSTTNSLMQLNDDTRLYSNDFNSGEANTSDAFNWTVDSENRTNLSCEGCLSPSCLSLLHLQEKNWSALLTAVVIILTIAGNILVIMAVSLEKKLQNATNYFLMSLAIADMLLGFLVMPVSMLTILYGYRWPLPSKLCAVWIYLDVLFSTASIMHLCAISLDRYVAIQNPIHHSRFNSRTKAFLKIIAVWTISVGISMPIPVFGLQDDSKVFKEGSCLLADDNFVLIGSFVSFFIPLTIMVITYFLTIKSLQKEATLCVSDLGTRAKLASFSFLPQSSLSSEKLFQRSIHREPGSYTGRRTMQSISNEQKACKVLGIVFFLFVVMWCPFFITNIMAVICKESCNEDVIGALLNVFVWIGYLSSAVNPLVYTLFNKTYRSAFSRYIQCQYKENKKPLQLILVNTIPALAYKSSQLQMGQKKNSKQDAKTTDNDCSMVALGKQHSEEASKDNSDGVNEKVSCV
Sodium channel protein type 5 subunit alpha, sequence (Q14524 whole entry): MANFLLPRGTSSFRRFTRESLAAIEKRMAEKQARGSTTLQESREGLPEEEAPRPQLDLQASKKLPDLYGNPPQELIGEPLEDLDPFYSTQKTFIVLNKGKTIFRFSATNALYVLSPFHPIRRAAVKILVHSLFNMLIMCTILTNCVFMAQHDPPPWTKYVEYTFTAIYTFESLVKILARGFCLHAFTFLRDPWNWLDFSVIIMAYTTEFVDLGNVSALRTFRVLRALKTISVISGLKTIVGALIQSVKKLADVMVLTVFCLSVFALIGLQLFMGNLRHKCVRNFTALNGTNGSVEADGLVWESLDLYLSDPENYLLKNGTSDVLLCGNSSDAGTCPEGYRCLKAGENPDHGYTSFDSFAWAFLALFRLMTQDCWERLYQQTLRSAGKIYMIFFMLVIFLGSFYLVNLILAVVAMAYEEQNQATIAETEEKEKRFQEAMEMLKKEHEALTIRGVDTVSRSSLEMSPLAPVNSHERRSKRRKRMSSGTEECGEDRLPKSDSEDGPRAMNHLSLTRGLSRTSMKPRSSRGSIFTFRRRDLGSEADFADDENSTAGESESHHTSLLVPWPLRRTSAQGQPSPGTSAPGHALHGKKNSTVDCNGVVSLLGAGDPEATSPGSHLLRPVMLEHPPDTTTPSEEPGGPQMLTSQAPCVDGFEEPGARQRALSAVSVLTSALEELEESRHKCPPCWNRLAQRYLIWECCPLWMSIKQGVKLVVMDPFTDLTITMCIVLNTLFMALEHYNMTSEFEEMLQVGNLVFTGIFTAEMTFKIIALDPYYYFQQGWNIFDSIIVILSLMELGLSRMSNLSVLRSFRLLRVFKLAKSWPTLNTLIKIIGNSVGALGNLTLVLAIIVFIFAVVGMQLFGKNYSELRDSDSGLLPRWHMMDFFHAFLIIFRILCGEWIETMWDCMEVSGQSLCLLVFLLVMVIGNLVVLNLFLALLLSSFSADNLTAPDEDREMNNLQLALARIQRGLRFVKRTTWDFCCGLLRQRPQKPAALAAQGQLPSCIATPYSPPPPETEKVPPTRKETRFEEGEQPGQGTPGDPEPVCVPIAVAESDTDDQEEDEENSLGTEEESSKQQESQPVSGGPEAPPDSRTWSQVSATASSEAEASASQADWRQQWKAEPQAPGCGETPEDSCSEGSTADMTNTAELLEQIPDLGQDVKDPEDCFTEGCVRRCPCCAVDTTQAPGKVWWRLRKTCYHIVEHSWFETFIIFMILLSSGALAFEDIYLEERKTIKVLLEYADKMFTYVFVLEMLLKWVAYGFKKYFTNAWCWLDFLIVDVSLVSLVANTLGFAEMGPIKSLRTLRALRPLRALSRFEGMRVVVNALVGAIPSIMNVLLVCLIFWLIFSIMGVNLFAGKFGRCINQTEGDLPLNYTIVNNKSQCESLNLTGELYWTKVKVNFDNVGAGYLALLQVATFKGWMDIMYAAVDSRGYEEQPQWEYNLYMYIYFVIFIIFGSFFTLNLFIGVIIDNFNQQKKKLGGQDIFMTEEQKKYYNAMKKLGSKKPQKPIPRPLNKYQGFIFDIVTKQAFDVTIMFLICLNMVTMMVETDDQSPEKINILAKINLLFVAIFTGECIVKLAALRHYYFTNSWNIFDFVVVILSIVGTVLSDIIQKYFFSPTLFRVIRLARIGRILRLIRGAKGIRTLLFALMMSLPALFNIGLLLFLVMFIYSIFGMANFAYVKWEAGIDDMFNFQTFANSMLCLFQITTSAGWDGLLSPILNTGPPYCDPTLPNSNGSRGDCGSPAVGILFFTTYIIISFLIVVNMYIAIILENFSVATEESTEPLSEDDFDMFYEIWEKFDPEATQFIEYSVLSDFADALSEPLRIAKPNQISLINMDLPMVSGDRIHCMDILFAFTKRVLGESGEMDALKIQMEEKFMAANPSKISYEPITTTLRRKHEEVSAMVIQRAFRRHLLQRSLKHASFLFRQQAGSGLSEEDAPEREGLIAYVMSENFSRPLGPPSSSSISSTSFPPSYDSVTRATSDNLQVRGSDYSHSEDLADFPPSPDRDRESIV
Gamma-aminobutyric acid receptor subunit alpha-1/alpha-2/beta-2/gamma-2, sequence (P14867 whole entry): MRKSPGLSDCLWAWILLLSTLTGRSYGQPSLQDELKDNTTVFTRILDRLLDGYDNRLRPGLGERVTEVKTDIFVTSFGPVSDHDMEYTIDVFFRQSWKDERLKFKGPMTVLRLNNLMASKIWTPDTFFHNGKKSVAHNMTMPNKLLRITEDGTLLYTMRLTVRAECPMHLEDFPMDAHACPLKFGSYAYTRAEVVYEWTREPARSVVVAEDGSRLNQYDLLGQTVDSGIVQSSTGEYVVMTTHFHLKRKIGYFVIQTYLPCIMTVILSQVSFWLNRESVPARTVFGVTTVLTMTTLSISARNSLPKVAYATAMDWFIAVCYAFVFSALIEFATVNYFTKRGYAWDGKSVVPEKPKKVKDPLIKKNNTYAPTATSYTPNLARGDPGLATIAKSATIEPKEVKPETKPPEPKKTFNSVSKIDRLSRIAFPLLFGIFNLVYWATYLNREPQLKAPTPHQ
Gamma-aminobutyric acid receptor subunit alpha-1/alpha-2/beta-2/gamma-2, sequence (P47870 whole entry): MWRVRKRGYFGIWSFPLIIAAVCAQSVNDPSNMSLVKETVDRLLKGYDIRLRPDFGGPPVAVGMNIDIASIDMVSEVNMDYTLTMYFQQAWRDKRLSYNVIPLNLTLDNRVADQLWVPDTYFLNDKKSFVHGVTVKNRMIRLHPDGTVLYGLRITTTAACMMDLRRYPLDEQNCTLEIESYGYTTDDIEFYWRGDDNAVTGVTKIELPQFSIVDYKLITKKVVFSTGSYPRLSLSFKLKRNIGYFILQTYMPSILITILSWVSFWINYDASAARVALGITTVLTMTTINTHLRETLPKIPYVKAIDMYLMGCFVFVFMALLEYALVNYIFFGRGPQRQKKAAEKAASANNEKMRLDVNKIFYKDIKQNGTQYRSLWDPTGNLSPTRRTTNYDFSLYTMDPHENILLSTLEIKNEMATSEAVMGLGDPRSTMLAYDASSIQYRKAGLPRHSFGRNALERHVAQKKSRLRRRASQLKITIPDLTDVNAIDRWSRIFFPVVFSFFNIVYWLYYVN
Gamma-aminobutyric acid receptor subunit alpha-1/alpha-2/beta-2/gamma-2, sequence (P18507 whole entry): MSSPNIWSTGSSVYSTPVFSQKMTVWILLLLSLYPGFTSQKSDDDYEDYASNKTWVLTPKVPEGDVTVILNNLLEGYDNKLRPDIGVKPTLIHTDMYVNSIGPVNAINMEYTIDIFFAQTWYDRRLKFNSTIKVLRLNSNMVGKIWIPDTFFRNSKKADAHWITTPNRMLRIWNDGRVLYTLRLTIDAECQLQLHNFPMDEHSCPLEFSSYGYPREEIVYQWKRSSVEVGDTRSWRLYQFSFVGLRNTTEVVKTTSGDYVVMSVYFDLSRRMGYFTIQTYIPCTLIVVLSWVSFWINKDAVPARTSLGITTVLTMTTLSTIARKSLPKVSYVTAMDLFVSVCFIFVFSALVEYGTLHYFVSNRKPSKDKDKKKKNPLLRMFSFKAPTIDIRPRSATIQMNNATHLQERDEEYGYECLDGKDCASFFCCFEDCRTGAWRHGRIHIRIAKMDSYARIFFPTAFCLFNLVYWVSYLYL
Gamma-aminobutyric acid receptor subunit alpha-1/alpha-2/beta-2/gamma-2, sequence (P47869 whole entry): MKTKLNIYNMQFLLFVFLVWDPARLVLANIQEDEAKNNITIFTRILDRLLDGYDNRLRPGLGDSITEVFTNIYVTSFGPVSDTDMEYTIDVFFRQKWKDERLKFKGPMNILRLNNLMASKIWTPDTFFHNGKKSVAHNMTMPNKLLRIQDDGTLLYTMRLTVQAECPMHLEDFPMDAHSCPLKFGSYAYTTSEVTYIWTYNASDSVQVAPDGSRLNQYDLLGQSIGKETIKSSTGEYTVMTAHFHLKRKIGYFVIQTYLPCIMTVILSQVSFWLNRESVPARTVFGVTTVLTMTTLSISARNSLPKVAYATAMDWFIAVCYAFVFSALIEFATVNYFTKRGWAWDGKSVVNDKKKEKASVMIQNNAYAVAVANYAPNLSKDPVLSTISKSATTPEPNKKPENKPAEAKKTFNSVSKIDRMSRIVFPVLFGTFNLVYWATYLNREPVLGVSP

| Compound | AC50 [1] | AC50 [2] | AC50 [3] | AC50 [4] | AC50 [5] | AC50 [6] | AC50 [7] | AC50 [8] | AC50 [9] | AC50 [10] | AC50 [11] |
| --- | --- | --- | --- | --- | --- | --- | --- | --- | --- | --- | --- |
| CC1(C)S[C@@H]2[C@H](NC(=O)[C@H](N)c3ccc(O)cc3)C(=O)N2[C@H]1C(=O)O [AMOXICILLIN] | > 10 µM | > 10 µM | > 30 µM | > 30 µM | > 30 µM | > 30 µM | > 10 µM | – | – | – | – |
| C=C(C)[C@@H]1CCC(C)=C[C@H]1c1c(O)cc(CCCCC)cc1O [CANNABIDIOL] | – | – | – | – | – | > 10 µM | – | > 30 µM | 4.7 µM | > 30 µM | – |
| C[C@H]1Oc2cc(cnc2N)-c2c(nn(C)c2C#N)CN(C)C(=O)c2ccc(F)cc21 [LORLATINIB] | – | – | – | – | – | > 30 µM | – | > 30 µM | > 30 µM | > 30 µM | > 30 µM |
| CNC[C@H](O)c1cccc(O)c1 [PHENYLEPHRINE] | – | > 10 µM | > 30 µM | > 30 µM | > 30 µM | > 30 µM | > 10 µM | > 30 µM | > 30 µM | > 10 µM | – |
| O=C1NC(=O)C(c2ccccc2)(c2ccccc2)N1 [PHENYTOIN] | > 10 µM | > 10 µM | > 30 µM | > 30 µM | > 30 µM | > 50 µM | – | – | – | – | – |
| NC(=O)c1ncn([C@@H]2O[C@H](CO)[C@@H](O)[C@H]2O)n1 [RIBAVIRIN] | > 10 µM | – | – | – | – | > 50 µM | – | – | – | – | – |
| O=C(Nc1c(Cl)cncc1Cl)c1ccc(OC(F)F)c(OCC2CC2)c1 [ROFLUMILAST] | – | – | – | – | – | > 50 µM | – | > 30 µM | > 30 µM | > 30 µM | – |
| CC(C)N(CCCCOCC(=O)NS(C)(=O)=O)c1cnc(-c2ccccc2)c(-c2ccccc2)n1 [SELEXIPAG] | > 10 µM | – | – | – | – | 45 µM | – | > 30 µM | 16 µM | > 30 µM | – |
| NC(=O)NS(=O)(=O)c1ccc(N)cc1 [SULFACARBAMIDE] | – | – | – | – | – | > 50 µM | – | – | – | – | – |
| CCCCCCCCNC(C)C(O)c1ccc(SC(C)C)cc1 (centres undefined) [SULOCTIDIL] | – | – | – | – | – | 7.7 µM | – | – | – | – | – |
